{"source": "patent US20230172936A1", "about": "“VCP/p97 INHIBITOR FOR THE TREATMENT OF CANCER” (Cleave Therapeutics, Inc., priority 2020, published 2023)", "key": {"MLL-AF9 cells": {"tested_on": "MLL-AF9 cells", "assay": "MLL-AF9 allogenic disseminated mouse model of AML", "assay_type": "in vivo, mice", "settings": "90 mg/kg oral gavage, 4 days on/3 days off, vs vehicle", "procedure": "Compound 1 was tested in the MLL-AF9 allogenic disseminated mouse model of AML. 200,000 MLL-AF9-cells were injected via tail vein into 6-week-old C57BL/6 male mice (The Jackson Laboratory). Starting at day 8 after cell injection, mice were treated with Compound 1 delivered through oral gavage (90 mg/kg) or vehicle (0.5% methylcellulose) on a dosing schedule of 4 days “on” (administered on each of 4 days sequentially) followed by 3 days “off” (no administration on each of 3 sequential days) for 2 full cycles (two weeks total of 4 on/3 off).\nThe proportion of MLL-AF9 cells in peripheral blood (n=6 mice per group) was measured at 12 days post-injection of MLL-AF9 cells using flow cytometry. Murine peripheral blood, bone marrow and spleen were collected from each organ, washed with PBS-0.1% BSA-2 mM EDTA and lysed for 10 minutes with red blood cell lysis buffer (Sigma). After two washing steps with PBS-0.1% BSA-2 mM EDTA, bone marrow cells were stained for 30 minutes at 4° C. with corresponding cell surface antibodies for CD45 (CD45 […], Invitrogen). Cells were then washed twice with PBS-0.1% BSA-2 mM EDTA before analysis of 10,000 cells gated for CD45+(high) with BD FACSCanto II (BD Biosciences) to isolate the AML blast population. Statistical significance determined using Mann-Whitney test in comparison with vehicle. Error bars represent mean±SEM. […]"}, "MV-411 cell line": {"tested_on": "MV-411 cell line", "assay": "Cytotoxicity by Cell Titer Glo", "assay_type": "cell-based", "settings": "Homo sapiens, MV4-11, 144 h, 6 days", "procedure": "Acute myelogenous leukemia (AML) is the most common acute leukemia in adults. A hematologic cancer, the disease is highly heterogeneous, with multiple subtypes. About 30% of AML cases harbor a FLT3/ITD mutation making the disease highly proliferative and more aggressive with a high risk of relapse.\nTriplicate wells with media only and duplicate wells of vehicle (0.2% DMSO) were used as negative controls. […] To measure proliferation, untreated cells at days 0 and 6 were evaluated via Cell Titer Glo.\nProtocol: • 1. AML cells were thawed and resuspended in enriched media composed of StemSpan™ Serum-Free Expansion Media (SFEM), 2% heat-inactivated FBS, StemSpan™ CC110 and recombinant human IL-3. • 2. 20,000 cells/well in 100 μL volume were plated on study day 0. • 3. […] Cells were incubated in the presence of drug for 6 days. • 5. On day 6, plates were removed from the incubator and equilibrated to room temperature for 20 minutes. 100 μL/well Cell Titer Glo was added to each well and incubated for 10 minutes before plate reading. • 6. Luminescence was recorded using Tecan Infinite M Plex plate reader."}, "p97": {"target": "p97 (Homo sapiens, UniProt P55072)", "sequence (P55072 whole entry)": "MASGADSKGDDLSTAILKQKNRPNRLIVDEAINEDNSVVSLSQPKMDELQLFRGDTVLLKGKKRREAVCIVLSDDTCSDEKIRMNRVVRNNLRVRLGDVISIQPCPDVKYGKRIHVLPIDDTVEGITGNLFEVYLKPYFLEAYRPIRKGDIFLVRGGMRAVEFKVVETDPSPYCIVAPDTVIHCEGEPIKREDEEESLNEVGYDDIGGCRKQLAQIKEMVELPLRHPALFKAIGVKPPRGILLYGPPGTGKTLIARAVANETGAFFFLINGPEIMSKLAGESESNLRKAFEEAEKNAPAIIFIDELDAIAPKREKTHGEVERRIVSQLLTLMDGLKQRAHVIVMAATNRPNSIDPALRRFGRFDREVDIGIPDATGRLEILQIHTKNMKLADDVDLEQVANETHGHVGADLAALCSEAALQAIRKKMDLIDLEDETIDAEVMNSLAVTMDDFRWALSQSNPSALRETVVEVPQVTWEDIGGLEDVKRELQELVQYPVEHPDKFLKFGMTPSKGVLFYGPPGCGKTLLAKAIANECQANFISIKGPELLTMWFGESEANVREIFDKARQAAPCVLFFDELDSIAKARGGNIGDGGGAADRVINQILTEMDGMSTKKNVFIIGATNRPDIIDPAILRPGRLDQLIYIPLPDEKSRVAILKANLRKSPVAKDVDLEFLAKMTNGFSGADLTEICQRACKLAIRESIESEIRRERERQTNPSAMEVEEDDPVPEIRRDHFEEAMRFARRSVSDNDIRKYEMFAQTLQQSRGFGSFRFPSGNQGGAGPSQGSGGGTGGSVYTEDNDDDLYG", "assay": "P97 inhibition assay (ADP glo)", "assay_type": "biochemical", "procedure": "The p97 assay is an assay used to determine inhibitory activity of compounds against the p97 complex. Inhibition of activity of the p97 proteosome complex can enable apoptosis and cause elimination of neoplastic cells (cancer cells). The assay follows that of Christianson in Nat. Cell Biol., (2011) 14:93. The reagents used for the p97 assay include an assay buffer which is a mixture of 50 mM TRIS pH 7.5, 20 mM MgCI˜, 0.02% TX-100, 1 mM DTT and 0.2% (v/v) glycerol. The well plate is a Corning 3674, 384w plate. The identification kit is an ADP glo kit (Promega): stop buffer, detection reagent.\nThe assay is conducted as follows: • Serial dilute compound in DMSO in a 1:3.33-fold 10 point serial dilution. • In each well of 384w plate add the following reagents: 0.5 μL compound serial diluted in DMSO (Final Conc. 10%) 2 μL ATP (Final Conc.=20 μM, diluted in assay buffer) 2.5 μL p97 (Final Conc.=20 nM, diluted in assay buffer). • Incubate at 37° C. for 15 min. • Add 5 μL of stop buffer, incubate at RT for 40 min. • Add 10 μL of detection reagent, incubate at RT for 30 min. • Read luminescence on Envision plate reader. […]"}, "[1]": {"assay": "Human plasma pharmacokinetics (Phase I dose escalation)", "excerpt": "BID dosing may be also tested depending on initial PK assessments. Participants will be evaluated regularly for safety assessments including physical examinations and laboratory testing. Bone marrow aspirates and/or biopsies will be performed at regular intervals, including for assessment of tumor response as per 2017 European LeukemiaNet (ELN) response criteria for AML or 2006 revised International Working Group (IWG) response criteria for MDS. Peripheral blood samples will be collected in Cycle 1 for intensive PK testing and PD biomarker assessments. Additional intensive PK testing will be collected for any participants undergoing intra-patient dose escalation.\nA cycle consists of 28 days and the first cycle will comprise the DLT observation period.\nFollowing the protocol of Example 7, additional patients were treated in the dose escalation study."}, "[2]": {"excerpt": "Group 1 received PO 4-days on, 3-days off doses (QD4/3 off) of vehicle."}}, "note": "pIC50: −log10 of the molar value. Where “and” joins values, the source holds several entries; their conditions need not be identical. Equal values may be shown once. Read-outs that look alike come from different tables or passages of the source."}
{"smiles": "Cc1cc2c(C(N)=O)cccc2n1-c1nc2c(c(NCc3ccccc3)n1)CCCN2", "note": "[Compound 1, 1-(4-(Benzylamino)-5,6,7,8-tetrahydropyrido[2,3-d]pyrimidin-2-yl)-2-methyl-1H-indole-4-carboxamide]", "values": [{"measurement": "overall survival", "setting": "MLL-AF9 cells; 2 cycles", "value": "improved the overall survival"}, {"measurement": "circulating blast counts (MLL-AF9 cells in peripheral blood)", "setting": "MLL-AF9 cells; 12 days post-injection", "value": "reduced circulating blast counts"}, {"measurement": "pIC50", "setting": "MV-411 cell line", "value": 6.58}, {"measurement": "pIC50", "setting": "p97", "value": "> 7.52"}, {"measurement": "AR", "setting": "[1]; 25 mg QD, Day 4", "value": 0.914}, {"measurement": "accumulation", "setting": "[1]; 25 mg QD, between days 1 and 4", "value": "No accumulation"}, {"measurement": "exposure with concomitant proton pump inhibitors (PPi)", "setting": "[1]; 100 mg QD, two of three subjects", "value": "lower exposure"}, {"measurement": "exposure level increases between the doses", "setting": "[1]; 25, 50, 100 and 175 mg QD, 9 patients", "value": "proportional and linear"}, {"measurement": "plasma exposure compared with CB-5083", "setting": "[1]; Compound 1 25 mg QD vs CB-5083 40 mg QD", "value": "significantly higher plasma exposure"}, {"measurement": "exposures compared with CB-5083", "setting": "[1]; Compound 1 25 mg QD vs CB-5083 at greater than 200 mg, FIG. 7", "value": "greater than dosing CB-5083 at greater than 200 mg"}, {"measurement": "exposures compared with CB-5083", "setting": "[1]; dose escalation 25-175 mg QD, FIG. 8", "value": "greater than dosing CB-5083"}, {"measurement": "Tmax", "setting": "[1]; human, in vivo, 25 mg", "value": 2, "unit": "h"}, {"measurement": "tmax", "setting": "[1]; human, in vivo, 25 mg", "value": 2, "unit": "h"}, {"measurement": "AUC(0-inf)", "setting": "[1]; human, in vivo, 25 mg, AUC0-inf", "value": "1.03 µM·h and 425 ng·h/mL"}, {"measurement": "AUC(0-t)", "setting": "[1]; human, in vivo, 25 mg, AUC0-t", "value": "0.88 µM·h and 364 ng·h/mL"}, {"measurement": "Cmax", "setting": "[1]; human, in vivo, 25 mg, Cmax", "value": "198 nM and 81.7 ng/mL"}, {"measurement": "half-life", "setting": "[1]; human, in vivo, 25 mg, half-life", "value": "3 to 4", "unit": "h"}, {"measurement": "half-life", "setting": "[1]; human, in vivo, 25 mg, t1/2", "value": 2.61, "unit": "h"}, {"measurement": "drug-related deaths", "setting": "[2]; 100 mg/kg QD4/3 off", "value": "a single drug-related death"}, {"measurement": "tolerability of dosing regimen", "setting": "[2]; 100 mg/kg QD4/3 off", "value": "generally tolerated"}, {"measurement": "mean body weight loss", "setting": "[2]; 100 mg/kg QD4/3 off, day 2", "value": "−7.0", "unit": "%"}, {"measurement": "deaths", "setting": "[2]; 150 mg/kg BIW cohort", "value": "No deaths"}, {"measurement": "body weight loss", "setting": "[2]; 150 mg/kg BIW, day 2", "value": "−1.5", "unit": "%"}, {"measurement": "body weight loss", "setting": "[2]; 150 mg/kg BIW, day 3", "value": "−3.9", "unit": "%"}, {"measurement": "drug related deaths", "setting": "[2]; 225 mg/kg 1/W cohort", "value": "A single drug related death"}, {"measurement": "body weight loss", "setting": "[2]; 225 mg/kg weekly, day 4", "value": "−8.1", "unit": "%"}]}
